Here are results for nine compounds from patent US5770383A, “Tricyclic retinoids, methods for their production and use” (Ligand Pharmaceuticals, Inc., priority 1995, dated 1998).

Assay [1] deals with RARs. The assay is described as follows: Co-transfection assay, RARs taken together. In kind it is cell-based. Particulars: Table 1. As to the method:
(§1) Utilizing the "cis-trans" or "co-transfection" assay described by Evans et al., Science, 240:889-95 (May 13, 1988), the disclosure of which is herein incorporated by reference, the retinoid compounds of the present invention were tested and found to have strong, specific activity as either selective RAR agonists, selective RXR agonists, or as pan-agonist activators of both RAR and RXR receptors. This assay is described in further detail in U.S. Pat. Nos. 4,981,784 and 5,071,773, the disclosures of which are incorporated herein by reference.
(§2) The co-transfection assay provides a method for identifying functional agonists which mimic, or antagonists which inhibit, the effect of native hormones, and quantifying their activity for responsive IR proteins. In this regard, the co-transfection assay mimics an in vivo system in the laboratory. Importantly, activity in the co-transfection assay correlates very well with known in vivo activity, such that the co-transfection assay functions as a qualitative and quantitative predictor of a tested compounds Ln vivo pharmacology. See, e.g., T. Berger et al. 41 J. Steroid Biochem. Molec. Biol. 733 (1992), the disclosure of which is herein incorporated by reference.
(§3) In the co-transfection assay, a cloned cDNA for an IR (e.g., human RARα, RARβ, RXRγ) under the control of a constitutive promoter (e.g., the SV 40 promoter) is introduced by transfection (a procedure to induce cells to take up foreign genes) into a background cell substantially devoid of endogenous IRs. This introduced gene directs the recipient cells to make the IR protein of interest. A second gene is also introduced (co-transfected) into the same cells in conjunction with the IR gene. This second gene, comprising the cDNA for a reporter protein, such as firefly luciferase (LUC), controlled by an appropriate hormone responsive promoter containing a hormone response element (HRE). This reporter plasmid functions as a reporter for the transcription-modulating activity of the target IR. Thus, the reporter acts as a surrogate for the products (mRNA then protein) normally expressed by a gene under control of the target receptor and its native hormone.
The co-transfection assay can detect small molecule agonists or antagonists of target IRs. Exposing the transfected cells to an agonist ligand compound increases reporter activity in the transfected cells. This activity can be conveniently measured, e.g., by increasing luciferase production, which reflects compound-dependent, IR-mediated increases in reporter transcription. […] . Increasing concentrations of a suspected antagonist will decrease the reporter signal (e.g., luciferase production). The co-transfection assay is therefore useful to detect both agonists and antagonists of specific IRs. […]

Assay [2] has as its system RAR and RXR receptors. As to the kind of experiment: Co-transfection assay, RARs and RXRs taken together. In kind it is cell-based. On the procedure: as §1, §2, §3
The co-transfection assay can detect small molecule agonists or antagonists of target IRs. Exposing the transfected cells to an agonist ligand compound increases reporter activity in the transfected cells. This activity can be conveniently measured, e.g., by increasing luciferase production, which reflects compound-dependent, IR-mediated increases in reporter transcription. […] . Increasing concentrations of a suspected antagonist will decrease the reporter signal (e.g., luciferase production). The co-transfection assay is therefore useful to detect both agonists and antagonists of specific IRs. Furthermore, it determines not only whether a compound interacts with a particular IR, but whether this interaction mimics (agonizes) or blocks (antagonizes) the effects of the native regulatory molecules on target gene expression, as well as the specificity and strength of this interaction.
To determine RAR and/or RXR agonist activity of the compounds of the present invention, the CV-1 cells were transiently transfected by calcium phosphate coprecipitation according to the procedure of Berger et al., 41 J.Steroid Biochem. Mol. Biol., 733 (1992) with the following receptor expressing plasmids: pRShRARα: Giguere et al., 330 Nature, 624 (1987); pRShRARβ and pRShRARγ, Ishikawa et al., 4 Mol. Endocrin., 837 (1990); pRShRXRα, Mangelsdorf et al., 345 Nature, 224 (1990); and pRSmRXRβ and pRSmRXRγ, Mangelsdorf et al., 6 Genes & Devel., 329 (1992), the disclosures of which are herein incorporated by reference.

The test system of assay [3] is TPA induction of ODC. Particulars: literature; cited from earlier work.
Assay [4] concerns AML-193 cell line. The assay is described as follows: Incorporation of 3H-thymidine, AML-193. Particulars: 96 h, read-out: TdR IC50.

Turning to `CC(/C=C/C=C1/CCOc2cc3c(cc21)C(C)(C)CCC3(C)C)=C\C(=O)O` [Compound 144b], in assay [1], the “RAR activity in words” value is given as “extremely potent RAR active”. Further, the “selectivity / potency profile on RARs and RXRs in words” value (shortened to “selectivity / potency profile”) in assay [2] is “superior potency profiles to that of the known RXR active pan-agonist compound 9-cis retinoic acid”.
`CC(/C=C/C=C1/CC(C)(C)Oc2cc3c(cc21)C(C)(C)CCC3(C)C)=C\C(=O)O` [Compound 104b, (2E,4E)-3-Methyl-6-(2,3,6,7,8,9-hexahydro-2,2,6,6,9,9-hexamethylbenzo[b]-chromen-4-ylidene)-hexa-2,4-dienoic acid]: the “selectivity / potency profile” value in assay [2] is “potent and selective RXR compound”.
Take `CC1=C(/C=C/C(C)=C/C=C/C(C)=C/C(=O)O)C(C)(C)CCC1` [retinoic acid]: the “effect on ODC activity, in words” value in assay [3] is “inhibits this induction of ODC by TPA”.
For the compound `CC(/C=C/CC1CCCc2cc3c(cc21)C(C)(C)CCC3(C)C)=C\C(=O)O` (racemic) [Compound 124b, (2E,4E)-3-Methyl-6-(1,2,3,4,5,6,7,8-octahydro-5,5,8,8-tetramethylanthracen-1-yl)hexa-2,4-dienoic acid], the “selectivity / potency profile” value in assay [2] was “superior potency profiles to that of the known RXR active pan-agonist compound 9-cis retinoic acid”.
For `CCCCCCCCCCCCCC(=O)O[C@@H]1[C@@H](C)[C@@]2(O)[C@@H](C=C(CO)C[C@]3(O)C(=O)C(C)=C[C@@H]23)[C@@H]2C(C)(C)[C@]12OC(C)=O` [TPA, 12-0-tetradecanoylphorbor-13-acetate], in assay [3], the “effect on ODC activity, in words” value was “induces ODC activity”.
Turning to `CC(/C=C/C=C1/CCCc2cc3c(cc21)C(C)(C)CCC3(C)C)=C\C(=O)O` [Compound 101b, (2E,4E)-3-Methyl-6-[(Z)-3,4,5,6,7,8-hexahydro-5,5,8,8-tetramethyl-2H-anthracen-1-ylidene]hexa-2,4-dienoic acid], the “RAR activity in words” value in assay [1] is recorded as “extremely potent RAR active”. In addition, the “selectivity / potency profile” value in assay [2] is on record as “superior potency profiles to that of the known RXR active pan-agonist compound 9-cis retinoic acid”.
As to `C/C(=C\c1ccc(C(=O)O)cc1)c1ccc2c(c1)C(C)(C)CCC2(C)C` [TTNPB, (E)-4-[2-(5,6,7,8-tetrahydro-5,5,8,8-tetramethyl-2-napthalenyl)-1-propenyl]benzoic acid], the IC50 in assay [4] stood at 0.1 nM.
For `CC(/C=C/C=C1\CCCc2cc3c(cc21)C(C)(C)CCC3(C)C)=C\C(=O)O` [Compound 109b, (2E,4E)-3-Methyl-6-[(E)-3,4,5,6,7,8-hexahydro-5,5,8,8-tetramethyl-2H-anthracen-1-ylidene]hexa-2,4-dienoic acid], the “RAR activity in words” value in assay [1] is given as “extremely potent RAR active”. In assay [2], the “selectivity / potency profile” value is on record as “RAR selective”.
In the same order, the values of `CC(/C=C/C=C1\CCOc2cc3c(cc21)C(C)(C)CCC3(C)C)=C\C(=O)O` [Compound 119b, (2E,4E)-3-Methyl-6-[(E)-2,3,6,7,8,9-hexahydro-6,6,9,9-tetramethyl-benzo[g]chromen-4-ylidene]hexa-2,4-dienoic acid] are “extremely potent RAR active” and “RAR selective”.
